Values quoted from earlier work in patent publication US10307432B2, “Stabilized liquid fosaprepitant formulations” (Cipla Limited, priority 2015, dated 2019).

Columns and labels:
[1] = system: serotonin, dopamine or corticosteroid receptors
[2] = after an IV infusion

Compound	affinity for serotonin, dopamine or corticosteroid receptors [1]	time of conversion to aprepitant [2]
C[C@@H](O[C@H]1OCCN(Cc2n[nH]c(=O)[nH]2)[C@H]1c1ccc(F)cc1)c1cc(C(F)(F)F)cc(C(F)(F)F)c1 [Aprepitant]	little or no affinity	–
C[C@@H](O[C@H]1OCCN(Cc2nc(O)n(P(=O)(O)O)n2)[C@H]1c1ccc(F)cc1)c1cc(C(F)(F)F)cc(C(F)(F)F)c1 [Fosaprepitant]	–	less than 30 minutes
